Where two headings read alike, the source gives them in different places.
How the values were obtained:
[1] = tested on: L. infantum intracellular amastigotes; test: Anti-amastigote activity in infected murine peritoneal macrophages; type: cell-based; settings: Leishmania infantum, Peritoneal macrophage, read-out: EC50 - Effective Concentration that kills 50% of L. infantum amastigote forms
Protocol: (§1) The antileishmanial activity against L. infantum intracellular amastigotes, according to the following methodology. […] Were used infected macrophages as negative control and amphotericin B as the positive control.
(§2) After incubation, cells were fixed with methanol and Giemsa stained. The effective concentration to 50% amastigotes death (EC) was obtained by counting 100 macrophages in duplicate, in two independent experiments. The values were obtained by non-linear regression on Bioestat® software, and results were expressed in mean ± standard deviation.

[2] = target: T1, recombinant Leishmania cysteine protease LmCPB2.8ΔCTE (CPB) (Leishmania mexicana, UniProt P36400); test: Enzymatic inhibition of recombinant CPB (Z-FR-AMC substrate); type: biochemical
T1 construct: The ORF that codes for the Leishmania mexicana CPB, lacking the C terminal extension (CPB2.8ΔCTE); made in house; host or cells: Pichia pastoris X-33
T1 sequence (P36400 126-341, stated change not applied): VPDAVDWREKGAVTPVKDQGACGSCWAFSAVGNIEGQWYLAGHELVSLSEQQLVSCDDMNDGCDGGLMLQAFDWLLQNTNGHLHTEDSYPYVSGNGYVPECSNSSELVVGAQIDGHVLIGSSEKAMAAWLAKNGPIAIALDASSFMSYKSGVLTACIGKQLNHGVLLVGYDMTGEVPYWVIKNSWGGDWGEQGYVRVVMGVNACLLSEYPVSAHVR
Protocol: The concentration of the active recombinant CPB expressed in Pichia pastoris supernatant was determined by active site titration with N-(trans-Epoxysuccinyl)-L-leucine 4-guanidinobutylamide E-64 (CalBiochem) that was found 1 μM. The active enzyme represented about 80% of the total recombinant enzyme.
Compounds were dissolved in DMSO to a final concentration of 20 μM. The assays were performed in dark 96 well-plates, containing 200 μL of 100 mM sodium acetate buffer (pH 5.5), 200 mM NaCl, 0.01% Triton-X100, 2 nM enzyme, various concentrations of inhibitor, and 5 μM of the substrate Z-FR-AMC (Calbiochem). The final concentration of DMSO was 1% (v/v). The enzyme was pre-incubated at 30°C for 2 minutes before the inhibitor was added, waited 2 minutes and after this incubation, the reaction was started by the addition of the substrate, Z-FR-AMC. The fluorescence was monitored at 380 nm excitation and 460 nm emission filters for 2 minutes at 30°C in an Infinite 200 PRO microplate reader (Tecan, Männedorf, Switzerland). The residual activity was measured by the ratio between enzyme + substrate and enzyme + inhibitor + substrate. […] Results were expressed in mean ± standard deviation of two independent replicates using Bioestat Software.

[3] = Quantification of nitrite by the Griess reaction (NO release); settings: compounds at 10^-4 M, 5 mM of L-Cys (1:50), 1 h, 37°C
Protocol: The levels of nitrite resulting from the oxidation of NO in the aqueous medium were quantified through the Griess reaction after incubation with an excess of L-cysteine (1:50) according to previously published methods. The experiments were performed in triplicate and repeated three times on different days. […] The results were expressed as a percentage of nitrite (% NO2^−; mol/mol). Statistical analysis was carried out using ANOVA followed by Tukey’s Multiple Comparison Test at a significance level of p < 0.05.
The ability of all synthesized compounds (4a-x) and (14a-g) to release NO was evaluated by indirect determination of NO2^− production. The compounds at 10^−4 M were incubated for 1 h at 37°C in the presence of L-cysteine (1:50) and the produced NO2^− was determined through Griess reaction (Table 1).

[4] = Anti-amastigote activity in infected murine peritoneal macrophages; type: cell-based, L. infantum; settings: Swiss, mouse; CC50 macrophages / EC50 L. infantum amastigotes; read-out: SI - Selective Index (CC50/EC50)
Protocol: as §1, §2

| SMILES | melting point [°C] | EC50 ([1]; 24 h) [µM] | IC50 [2] [µM] | % NO2- (mol/mol) [3] [%] | selectivity ratio at 24 h [4] | EC50 ([1]; 24 h treatment, intracellular amastigotes) [µM] | IC50 ([2]; read-out: IC50 - Inhibition of CPB, 2 nM enzyme, 5 μM Z-FR-AMC, pH 5.5, 30°C) [µM] |
| --- | --- | --- | --- | --- | --- | --- | --- |
| Nc1ccc(C(=O)N/N=C/c2ccc(O)cc2)cc1 [Compound 14e, (E)-4-amino-N’-(4-hydroxybenzylidene)benzohydrazide] | 275 to 276 | > 10 | 1.2 ± 0.1 |  |  |  |  |
| NC(=O)c1c(COc2ccc(/C=N/NC(N)=S)cc2)no[n+]1[O-] [Compound 4o, (E)-4-((4-((2-carbamothioylhydrazono)methyl)phenoxy)methyl)-3-carbamoyl-1,2,5-oxadiazole 2-oxide] | 232 to 234 | > 10 | > 20 | 11.8 ± 1.2 |  |  |  |
| NC(=O)N/N=C/c1ccc(O)cc1 [Compound 14a, (E)-2-(4-hydroxybenzylidene)hydrazine-1-carboxamide] | 224 to 226 | > 10 | 2 ± 0.1 |  |  |  |  |
| O=C(N/N=C/c1ccc2no[n+]([O-])c2c1)c1ccc(O)cc1 [Compound 4v] |  | > 10 | > 20 |  |  |  |  |
| C[C@@H]1[C@H](O)[C@@H](C)/C=C/C=C/C=C/C=C/C=C/C=C/C=C/[C@H](O[C@@H]2O[C@H](C)[C@@H](O)[C@H](N)[C@@H]2O)C[C@@H]2O[C@](O)(C[C@@H](O)C[C@@H](O)[C@H](O)CC[C@@H](O)C[C@@H](O)CC(=O)O[C@H]1C)C[C@H](O)[C@H]2C(=O)O [Amphotericin B, amphotericin B, reference compound] |  |  |  | 0 | 12 | 1 ± 0.1 |  |
| O=C(N/N=C/c1ccc(O)cc1)c1ccc([N+](=O)[O-])cc1 [Compound 14f, (E)-N’-(4-hydroxybenzylidene)-4-nitrobenzohydrazide] | 266 to 268 | > 10 | 4 ± 0.1 |  |  |  |  |
| CC(C)(C)c1ccc(C(=O)N/N=C/c2ccc(Oc3no[n+]([O-])c3-c3ccccc3)cc2)cc1 [Compound 4e, (E)-4-(4-((2-(4-(tert-butyl)benzoyl)hydrazono)methyl)phenoxy)-3-phenyl-1,2,5-oxadiazole 2-oxide] |  | 0.6 ± 0.1 | 0.8 ± 0.1 | 8.8 ± 0.7 | > 833 |  |  |
| NC(=O)c1c(COc2ccc(/C=N/NC(=O)c3ccc(N)cc3)cc2)no[n+]1[O-] [Compound 4j, (E)-4-((4-((2-(4-aminobenzoyl)hydrazono)methyl)phenoxy)methyl)-3-carbamoyl-1,2,5-oxadiazole 2-oxide] | 209 to 214 | > 10 | 11.1 ± 0.1 | 12.7 ± 0.8 |  |  |  |
| CC(C)(C)c1ccc(C(=O)N/N=C/c2ccc(OCc3no[n+]([O-])c3C(N)=O)cc2)cc1 [Compound 4m, (E)-4-((4-((2-(4-(tert-butyl)benzoyl)hydrazono)methyl)phenoxy)methyl)-3-carbamoyl-1,2,5-oxadiazole 2-oxide] |  | 6.4 ± 1.1 | 6 ± 0.7 | 12.5 ± 1.3 | > 78 |  |  |
| O=C(N/N=C/c1ccc(O)cc1)c1ccccc1 [Compound 14c, (E)-N’-(4-hydroxybenzylidene)benzohydrazide] | 244 to 245 | > 10 | 2 ± 0.3 |  |  |  |  |
| NC(=S)N/N=C/c1ccc(O)cc1 [Compound 14b, (E)-2-(4-hydroxybenzylidene)hydrazine-1-carbothioamide] |  |  | 11.7 ± 1 |  |  |  |  |
| Nc1cccc(C(=O)N/N=C/c2ccc3no[n+]([O-])c3c2)c1 [Compound 4r] |  | 9.5 ± 0.6 | 3.4 ± 0.1 |  | 11 |  |  |
| O=C(N/N=C/c1ccc(O)cc1)c1ccc(O)cc1 [Compound 14d, (E)-4-hydroxy-N’-(4-hydroxybenzylidene)benzohydrazide] |  | > 10 | 2 ± 0.1 |  |  |  |  |
| CC(C)(C)c1ccc(C(=O)N/N=C/c2ccc3no[n+]([O-])c3c2)cc1 [Compound 4x] |  | > 10 |  |  |  |  | > 20 |
| Nc1ccccc1C(=O)N/N=C/c1ccc2no[n+]([O-])c2c1 [Compound 4q] |  | > 10 | 14 ± 2 |  |  |  |  |
